Results: patent US10188617B2, “Modulation of cellular DNA repair activity to intercept malignancy” (THE BOARD OF TRUSTEES OF THE LELAND STANFORD JUNIOR …, priority 2013, dated 2019)

Tests used:
HCC1937 cells = assay: Mouse xenograft model of in vivo tumorigenesis (chemoprevention)
Experimental: For in vivo tumorigenesis, we utilized a mouse xenograft model that began treatment with the DNA repair-activating agent 24 hours prior to inoculation of HCC1937 cells into the mammary fat pad. Treatment with vehicle control, 50 mg/kg benserazide, or 250 mg/kg benserazide continued daily for up to 60 days while monitoring for tumor formation by palpitation. After the 60 days (i.e. study endpoint), serum was collected for analysis of 8oxodG levels, tumors (if present) were excised and weighed, and anatomy was analyzed for metastasis.

[1] = tested on: BRCA1 wild-type (MCF7) and mutant (HCC1937) cells; assay: Trypan blue exclusion assay (cell viability); type: cell-based, human; conditions: treated simultaneously with the colony formation assay
Text: In FIG. 14C, BRCA1 wild-type (MCF7) and mutant (HCC1937) cells were simultaneously treated and then analyzed for cell viability by the trypan blue exclusion assay.

[2] = tested on: BER of ODD in SUM149 cells (mutant BRCA1, BER-defective); assay: DNA repair assay (oxidatively damaged GFP reporter gene), follow-up; type: cell-based, human
Experimental: (§1) Human breast cancer cell lines that were deficient in BER (HCC1143, MDAMB468, HCC1937, and SUM149) or proficient in BER (BT474 and MCF7) were cultured according to American Type Culture Collection guidelines, with the exception of SUM149, which was cultured according to Asterand plc guidelines. Brca1^+/+ and Brca1^-/- mouse mammary epithelial […] previously described. Cells were treated with DMSO (vehicle control) or acetohexamide or benserazide as indicated for 24 hours at 37° C. and 5% CO2. The DNA repair assay was carried out as described in the examples below. Where indicated, BER (base excision mode of DNA repair) activity was expressed relative to the control (DMSO).

[3] = tested on: BER of ODD in MCF7 cells (wild-type BRCA1, BER-proficient); assay: as above; type: cell-based, human; conditions: 20 μM, MCF7, vs vehicle
Experimental: as §1

[4] = tested on: BER of ODD in BT474 cells (wild-type BRCA1); assay: as above; type: cell-based, human; conditions: 20 μM, BT474, vs vehicle
Experimental: as §1

[5] = tested on: BER of ODD in HCC1937 cells (mutant BRCA1); assay: as above; type: cell-based, human; conditions: 20 μM, HCC1937, vs vehicle
Experimental: as §1

[6] = tested on: BRCA1-mutant/deficient cells; assay: Soft agar colony formation assay (in vitro tumorigenesis); type: cell-based, human; conditions: 20 μM benserazide vs 1 μM tamoxifen and vehicle
Experimental: BRCA1 wild-type (MCF7) and mutant (HCC1937) cells (FIG. 14A) as well as MCF7 cells stably transduced with shRNA to BRCA1 or non-targeting control (FIG. 14B) were treated with vehicle control, 20 μM benserazide, or 1 μM tamoxifen and subjected to the soft agar colony formation assay, i.e. the standard assay for in vitro tumorigenesis. Colony formation represents tumorigenic potential. Tamoxifen is the current FDA-approved chemoprevention agent for breast cancer and a therapeutically-equivalent dose was used for comparison.

[7] = study endpoint 60 days, dose response

## NC(CO)C(=O)NNCc1ccc(O)c(O)c1O (stereo not shown) [benserazide, 2-amino-3-hydroxy-N′-[(2,3,4-trihydroxyphenyl)methyl]propanehydrazide]
HCC1937 cells; 50 or 250 mg/kg daily up to 60 days
  tumor formation over time: delayed tumor formation over time
HCC1937 cells; 50 or 250 mg/kg daily up to 60 days, started 24 hours prior to inoculation
  percentage of tumor-free mice: increased the percentage of tumor-free mice in a dose-response manner
HCC1937 cells; both concentrations (50 and 250 mg/kg), unlike vehicle control
  metastasis: prevented metastasis
HCC1937 cells; [7]
  serum levels of 8oxodG: increase serum levels of 8oxodG
  tumor weights: decrease tumor weights
[1]
  cell viability (trypan blue exclusion): not due to a decrease in cell viability
[2]; 20 μM, SUM149, vs vehicle
  BER: statistically significant increase in BER
[2]; SUM149PT cells, 24 hours treatment
  repair of oxidatively damaged GFP reporter gene, dose-response: dose-response increase in repair of an oxidatively-damaged GFP reporter gene
[3]
  BER: no effect on BER
[4]
  BER: no effect on BER
[5]
  BER: statistically significant increase in BER
[6]
  in vitro tumorigenic potential (colony formation): prevented in vitro tumorigenesis
[6]; listed as Benserazide
  in vitro tumorigenic potential (colony formation): superior to tamoxifen at reducing in vitro tumorigenic potential
